Source: PubChem BioAssay (NCI)
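Following 48 hours of exposure in 96-well plates, responses at five concentrations were used to interpolate endpoints linearly. Abbreviation: GI50, concentration required for 50% inhibition of growth. TGI: concentration producing complete growth inhibition.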

Experiments:
Test in all cases: NCI tumour cell line growth inhibition, 48 h
NCI-H460 lung = test system: NCI-H460 lung
T-47D breast = test system: T-47D breast
IGROV1 ovarian = test system: IGROV1 ovarian
MCF7 breast = test system: MCF7 breast
CCRF-CEM leukemia = test system: CCRF-CEM leukemia
RXF 393 renal = test system: RXF 393 renal
SK-OV-3 ovarian = test system: SK-OV-3 ovarian
HCC-2998 colon = test system: HCC-2998 colon
HOP-62 NSCLC = test system: HOP-62 NSCLC
BT-549 breast = test system: BT-549 breast
ACHN renal = test system: ACHN renal
MOLT-4 leukemia = test system: MOLT-4 leukemia
M14 melanoma = test system: M14 melanoma
NCI-H23 lung = test system: NCI-H23 lung
PC-3 prostate = test system: PC-3 prostate
KM12 colon = test system: KM12 colon
TK-10 renal = test system: TK-10 renal
A498 renal = test system: A498 renal
OVCAR-4 ovarian = test system: OVCAR-4 ovarian
NCI-H226 lung = test system: NCI-H226 lung
DU-145 prostate = test system: DU-145 prostate
COLO 205 colon = test system: COLO 205 colon
OVCAR-3 ovarian = test system: OVCAR-3 ovarian
NCI/ADR-RES ovarian = test system: NCI/ADR-RES ovarian
HS 578T breast = test system: HS 578T breast
UACC-62 melanoma = test system: UACC-62 melanoma
MALME-3M melanoma = test system: MALME-3M melanoma
OVCAR-8 ovarian = test system: OVCAR-8 ovarian
HL-60(TB) leukemia = test system: HL-60(TB) leukemia
LOX IMVI melanoma = test system: LOX IMVI melanoma
SF-539 CNS = test system: SF-539 CNS
SN12C renal = test system: SN12C renal
SK-MEL-28 melanoma = test system: SK-MEL-28 melanoma
UO-31 renal = test system: UO-31 renal
HOP-92 NSCLC = test system: HOP-92 NSCLC
SW-620 colon = test system: SW-620 colon
MDA-MB-231 breast = test system: MDA-MB-231 breast
NCI-H522 lung = test system: NCI-H522 lung
SF-295 CNS = test system: SF-295 CNS
RPMI-8226 leukemia = test system: RPMI-8226 leukemia
SNB-19 CNS = test system: SNB-19 CNS
OVCAR-5 ovarian = test system: OVCAR-5 ovarian
A549 NSCLC = test system: A549 NSCLC
CAKI-1 renal = test system: CAKI-1 renal
EKVX NSCLC = test system: EKVX NSCLC
HT29 colon = test system: HT29 colon
SF-268 CNS = test system: SF-268 CNS
SK-MEL-2 melanoma = test system: SK-MEL-2 melanoma
786-0 renal = test system: 786-0 renal
SNB-75 CNS = test system: SNB-75 CNS
MDA-MB-435 = test system: MDA-MB-435
HCT-116 colon = test system: HCT-116 colon
SK-MEL-5 melanoma = test system: SK-MEL-5 melanoma
HCT-15 colon = test system: HCT-15 colon
K-562 leukemia = test system: K-562 leukemia
U251 CNS = test system: U251 CNS
SR leukemia = test system: SR leukemia

## CC(C)[C@@H]1CC[C@]2(CO2)[C@@H]2C(=O)OCC(C(=O)O)=C[C@H]21
NCI-H460 lung
  GI50: 402 nM
  TGI: > 100000 nM
T-47D breast
  GI50: 381 nM
  TGI: > 100000 nM
IGROV1 ovarian
  GI50: 442 nM
  TGI: 8730 nM
MCF7 breast
  GI50: 824 nM
  TGI: > 100000 nM
CCRF-CEM leukemia
  GI50: 319 nM
  TGI: 2850 nM
RXF 393 renal
  GI50: 300 nM
  TGI: 1370 nM
SK-OV-3 ovarian
  GI50: 438 nM
  TGI: > 100000 nM
HCC-2998 colon
  GI50: 459 nM
  TGI: > 52300 nM
HOP-62 NSCLC
  GI50: 350 nM
  TGI: 6940 nM
BT-549 breast
  GI50: 286 nM
  TGI: 851 nM
ACHN renal
  GI50: 430 nM
  TGI: > 100000 nM
MOLT-4 leukemia
  GI50: 620 nM
  TGI: 3960 nM
M14 melanoma
  GI50: 273 nM
  TGI: 898 nM
NCI-H23 lung
  GI50: 1350 nM
  TGI: 8410 nM
PC-3 prostate
  GI50: 677 nM
  TGI: > 100000 nM
KM12 colon
  GI50: 344 nM
  TGI: 4080 nM
TK-10 renal
  GI50: 686 nM
  TGI: > 93500 nM
A498 renal
  GI50: 203 nM
  TGI: 738 nM
OVCAR-4 ovarian
  GI50: 440 nM
  TGI: > 100000 nM
NCI-H226 lung
  GI50: 667 nM
  TGI: > 100000 nM
DU-145 prostate
  GI50: 471 nM
  TGI: > 100000 nM
COLO 205 colon
  GI50: 657 nM
  TGI: > 57700 nM
OVCAR-3 ovarian
  GI50: 470 nM
  TGI: > 100000 nM
NCI/ADR-RES ovarian
  GI50: 431 nM
  TGI: > 100000 nM
HS 578T breast
  GI50: 288 nM
  TGI: 2300 nM
UACC-62 melanoma
  GI50: 221 nM
  TGI: 578 nM
MALME-3M melanoma
  GI50: 305 nM
  TGI: 5310 nM
OVCAR-8 ovarian
  GI50: 351 nM
  TGI: > 100000 nM
HL-60(TB) leukemia
  GI50: 328 nM
  TGI: 1700 nM
LOX IMVI melanoma
  GI50: 331 nM
  TGI: 1420 nM
SF-539 CNS
  GI50: 353 nM
  TGI: > 34600 nM
SN12C renal
  GI50: 320 nM
  TGI: > 20100 nM
SK-MEL-28 melanoma
  GI50: 207 nM
  TGI: 424 nM
UO-31 renal
  GI50: 408 nM
  TGI: 15900 nM
HOP-92 NSCLC
  GI50: 235 nM
  TGI: 790 nM
SW-620 colon
  GI50: 334 nM
  TGI: > 100000 nM
MDA-MB-231 breast
  GI50: 363 nM
  TGI: > 75600 nM
NCI-H522 lung
  GI50: 46.2 nM
  TGI: 155 nM
SF-295 CNS
  GI50: 1000 nM
  TGI: > 100000 nM
RPMI-8226 leukemia
  GI50: 240 nM
  TGI: 635 nM
SNB-19 CNS
  GI50: 379 nM
  TGI: > 27100 nM
OVCAR-5 ovarian
  GI50: 540 nM
  TGI: > 100000 nM
A549 NSCLC
  GI50: 1570 nM
  TGI: > 100000 nM
CAKI-1 renal
  GI50: 411 nM
  TGI: > 100000 nM
EKVX NSCLC
  GI50: 5170 nM
  TGI: > 100000 nM
HT29 colon
  GI50: 352 nM
  TGI: > 33900 nM
SF-268 CNS
  GI50: 340 nM
  TGI: > 52500 nM
SK-MEL-2 melanoma
  GI50: 208 nM
  TGI: 407 nM
786-0 renal
  GI50: 358 nM
  TGI: > 100000 nM
SNB-75 CNS
  GI50: 422 nM
  TGI: > 100000 nM
MDA-MB-435
  GI50: 355 nM
  TGI: 6720 nM
HCT-116 colon
  GI50: 325 nM
  TGI: > 100000 nM
SK-MEL-5 melanoma
  GI50: 348 nM
  TGI: 1510 nM
HCT-15 colon
  GI50: 378 nM
  TGI: > 100000 nM
K-562 leukemia
  GI50: 334 nM
  TGI: > 100000 nM
U251 CNS
  GI50: 343 nM
  TGI: > 100000 nM
SR leukemia
  GI50: 552 nM
  TGI: 4240 nM
